# Reference: patent US20180280302A1, “SOLID DISPERSIONS OF COMPOUNDS USING POLYVINYL ALCOHOL AS A CARRIER POLYMER” (MERCK PATENT GMBH, priority 2015, published 2018)
# Tests used:
# [1] = cited from earlier work
# [2] = Dissolution of IBU compositions in SGFsp pH 1.2 (USP apparatus II, fiber-optic UV); format: physicochemical; settings: at 2 hours
# Experimental: All dissolution tests were conducted in a Vankel VK-7000 (Varian, Inc.) USP apparatus II (paddle) dissolution tester. The dissolution medium was maintained at 37° C. with a recirculating heater and a paddle speed of 75 RPM was constant throughout the test. The theoretical equivalent of 200 mg of IBU (1.0 g of KSD product) was added to each vessel containing 1 L of the dissolution medium (n=3). […] The dissolution medium recipe (SGFsp) consisted of 2.0 g NaCl and 80 ml of 0.1 N HCl in a total of 1 L of purified water (pH=1.2). The dissolution medium was degassed prior to testing by the heat/sonication method.
# The concentration of IBU in solution during the 120 minute dissolution test (shown in Table 10) was measured once per minute using a Pion Spectra in-situ fiber-optic UV-diss system (Pion, Inc., Billerica, Mass.) with a 1 mm path length probe tip. Concentrations were determined by integrating the area under the UV absorption curve in a wavelength range of 216 to 222 nm with a baseline correction at 450 nm. Linearity was established over a range of 1.4 to 200 μg/ml with a correlation coefficient of 0.9992. A diluents consisting of 7:3 (V/V) SGFsp:Acetonitrile (HPLC grade, no UV absorption beyond 190 nm) was used to generate the IBU standard curve.
final concentration [2] [mg/mL],Compound,pKa [1]
–,Cc1ccnc2c1NC(=O)c1cccnc1N2C1CC1 [Nevirapine],2.8
> 0.02,"CC(C)Cc1ccc(C(C)C(=O)O)cc1 (stereo not drawn) [Pure Ibuprofen, Ibuprofen]",–
–,Acetriptan,4.9
